Laboratory results taken from paper PMC6085350, “Small molecule inhibitors of RAS-effector protein interactions derived using an intracellular antibody fragment” (Nature Communications, 2018).

Assays:
Type in all cases: cell-based
[1] = biological target: T1, NRAS^Q61H interacting with PI3Kα, PI3Kγ, CRAF-RBD or full-length CRAF and RALGDS-RBD (Homo sapiens, UniProt P01111, Q61H); assay: BRET2 RAS-effector PPI assay, NRAS Q61H; conditions: HEK293T, 5, 10 and 20 μM
T1 construct: Transfection vector encoded full-length RAS was fused to the donor molecule RLuc8; expressed in transfected cells; host or cells: HEK293T
Description: (§1) Fig. 4 Abd-7 disrupting RAS-effector interactions. HEK293T cells were transfected with different BRET-based RAS biosensor expression vectors to evaluate the inhibition of RAS PPI in cells by compound Abd-7. Transfection vector encoded full-length RAS was fused to the donor molecule RLuc8 and the effectors fused to the acceptor molecule GFP[2]. a Effect of Abd-2 and Abd-7 on KRAS^G12D interaction with PI3Kα, PI3Kγ, CRAF or RALGDS. The BRET signal is plotted as a % of control cells treated with DMSO only and dose response to 5, 10 and 20 μM of each compound. b Effect of Abd-2 and Abd-7 on the BRET signal from interaction of KRAS^G12 mutants (Rluc8-KRAS^G12) and full-length CRAF (GFP[2]-CRAF FL). c, d Effect of Abd-2 and Abd-7 on the interaction of NRAS^Q61H (c) and HRAS^G12V (d) with various RAS effectors domain and with full-length CRAF. The BRET ratio corresponds to the light emitted by the GFP[2] acceptor constructs (515 nm ± 30) upon addition of Coelenterazine 400a divided by the light emitted by the RLuc8 donor constructs (410 nm ± 80). The normalized BRET ratio is the BRET ratio normalized to the DMSO negative and calculated as follows: (BRETcompound/BRETDMSO) x 100, where BRETcompound corresponds to the BRET ratio for the compound-treated cells, BRETDMSO to the DMSO-treated cells. Each experiment was repeated at least three times. […]

[2] = biological target: T2, HRAS^G12V interacting with PI3Kα, PI3Kγ, CRAF-RBD or full-length CRAF and RALGDS-RBD (Homo sapiens, UniProt P01112, G12V); assay: BRET2 RAS-effector PPI assay, HRAS G12V; conditions: HEK293T, 5, 10 and 20 μM
T2 construct: Transfection vector encoded full-length RAS was fused to the donor molecule RLuc8; expressed in transfected cells; host or cells: HEK293T
Description: as §1

[3] = biological target: T3, KRAS^G12D interaction with PI3Kα, PI3Kγ, CRAF RBD and RALGDS RA (Homo sapiens, UniProt P01116, G12D); assay: BRET2 RAS-effector PPI assay, KRAS G12D; conditions: HEK293T, 5, 10 and 20 μM, 20 h
T3 construct: Transfection vector encoded full-length RAS was fused to the donor molecule RLuc8; expressed in transfected cells; host or cells: HEK293T
Description: as §1

Row | Structure (SMILES) | effect on BRET signal, NRAS^Q61H with effectors [1] | effect on BRET signal, HRAS^G12V with effectors [2] | effect on BRET signal, KRAS^G12D with PI3Kα, PI3Kγ, CRAF RBD, RALGDS RA [3]
1 | COc1nc(-c2cccc3c2OCCO3)ccc1Nc1ccc(CN(C)C)cc1 [Abd-7] | interferes | interferes | reduces the BRET signal
2 | O=C(NCC1COc2ccccc2O1)c1ccco1 (stereo not drawn) [Abd-2] | does not | does not | no effect
